Marks after values point to notes of the source that are not given here.
What was measured:
[1] = In vitro metabolic stability using human liver microsomes; details: for % remaining: at both 1 and 10 μM
Experimental: The metabolic stability of 15 GABAA receptor ligands using human liver microsomes was studied. The test articles were incubated at two concentrations (1 and 10 μM) and aliquots (100 μl) were removed at various time points (0, 15, 30 and 60 minutes), and analyzed by LC-MS/MS.
(§1) The test articles were incubated at two concentrations (1 and 10 μM) in 96-well plate format with active or heat-inactivated human liver microsomes and cofactors. Aliquots were removed at 0, 15, 30 and 60 minutes and mixed with acetonitrile containing internal standard for analysis. Samples were extracted and assayed using a liquid chromatography/tandem mass spectrometry (LC-MS/MS) analytical method.
Pooled human liver microsomes (Lot #38289, pool of 150 different male and female donor livers) were obtained from BD Biosciences Corporation (Woburn, Mass.). Microsomes were stored at ˜−135° C. until use.
(§2) The test articles (1 and 10 μM) were incubated with human liver microsomes (0.5 mg protein/ml) and appropriate cofactors (2.5 mM NADPH and 3.3 mM magnesium chloride) in 100 mM phosphate buffer, pH 7.4 (0.1% final DMSO), in a 37° C. water bath. Incubations with all compounds were initiated with the addition of microsomes. At selected time points (0, 15, 30 and 60 min), a single 100 μl aliquot was removed from each sample and mixed with 200 μl of chilled acetonitrile containing internal standard. Following brief vortexing and centrifugation, the samples were further diluted into a 96-well plate for subsequent LC-MS/MS analysis. All samples were assayed in duplicate.
(§3) Experimental controls consisted of: a) incubation of all components except test article for 0 and 60 min, b) incubation of midazolam (positive control) at 10 μM for 0, 15, 30 and 60 min, and c) incubation of 1 and 10 μM test article and 10 μM midazolam with heat-inactivated microsomes (0.5 mg protein/ml) for 0 and 60 min. All controls were assayed in duplicate.
Samples were analyzed by LC-MS/MS in multiple reaction monitoring mode using positive-ion electrospray ionization. The details of the LC-MS/MS method can be provided upon request.
(§4) Data from the metabolic stability assays were transferred to and processed in a Microsoft Excel spreadsheet. To determine metabolic stability, the percent remaining at each time point was calculated by dividing the peak area ratio of test article/internal standard at each time point by the peak area ratio at 0 min multiplied by 100.

[2] = Incubation with heat-inactivated human liver microsomes (stability control); details: 60 min
Experimental: as §1, §2, §3, §4

| Structure (SMILES) | melting point | Mean % Remaining vs T = 0 min, Human Liver Microsomes ([1]; 1 μM, 15 min) [%] | Mean % Remaining vs T = 0 min, Human Liver Microsomes ([1]; 1 μM, 30 min) [%] | Mean % Remaining vs T = 0 min, Human Liver Microsomes ([1]; 10 μM, 15 min) [%] | Mean % Remaining vs T = 0 min, Human Liver Microsomes ([1]; 10 μM, 30 min) [%] | Mean % Remaining vs T = 0 min, Human Liver Microsomes ([1]; 10 μM, 60 min) [%] | Mean % Remaining vs T = 0 min, with HI (Heat Inactivated) Microsomes ([2]; 1 μM) [%] | Mean % Remaining vs T = 0 min, with HI (Heat Inactivated) Microsomes ([2]; 10 μM) [%] | Mean % Remaining vs T = 0 min, Human Liver Microsomes ([1]; 1 μM, 60 min) | further results |
| --- | --- | --- | --- | --- | --- | --- | --- | --- | --- | --- |
| O=C(OCCCCOC(=O)c1ncn2c1[C@@H]1CCCN1C(=O)c1cc(Br)ccc1-2)c1ncn2c1C1CCCN1C(=O)c1cc(Br)ccc1-2 (stereo partly shown) | 166 to 171 °C | – | – | – | – | – | – | – | – | – |
| O=C(OCCCCCOC(=O)c1ncn2c1[C@@H]1CCCN1C(=O)c1cc(Br)ccc1-2)c1ncn2c1C1CCCN1C(=O)c1cc(Br)ccc1-2 (stereo partly shown) | 157 to 161 °C | – | – | – | – | – | – | – | – | – |
| C#Cc1ccc2c(c1)C(c1ccccc1)=NCc1c(C(=O)OCCCOC(=O)c3ncn4c3CN(C)C(=O)c3cc(Cl)ccc3-4)ncn1-2 | 179 to 184 °C | 87.3 | 39.4 | 107 | 104 | 82.8 | 141 | 114 | – | – |
| C#Cc1ccc2c(c1)C(=O)N1CCCC1c1c(C(=O)OCCCOC(=O)c3ncn4c3CN(C)C(=O)c3cc(Cl)ccc3-4)ncn1-2 (stereo not shown) | 174 to 176 °C | – | – | – | – | – | – | – | – | – |
| C#Cc1ccc2c(c1)C(=O)N1CCCC1c1c(C(=O)N3CCN(C(=O)c4ncn5c4[C@@H]4CCCN4C(=O)c4cc(C#C)ccc4-5)CC3)ncn1-2 (stereo partly shown) | 206 to 211 °C | – | – | – | – | – | – | – | – | – |
| C#Cc1ccc2c(c1)C(c1ccccc1)=NCc1c(C(=O)NC)ncn1-2 | 237 to 238 °C | – | – | – | – | – | – | – | – | – |
| C#Cc1ccc2c(c1)C(c1ccccc1F)=N[C@@H](C)c1c(C(=O)OCCCCCOC(=O)c3ncn4c3CN(C)C(=O)c3cc(Cl)ccc3-4)ncn1-2 | 157 to 162 °C (dec.) | – | – | – | – | – | – | – | – | – |
| C#Cc1ccc2c(c1)C(c1ccccc1F)=N[C@@H](C)c1c(C(=O)OCCCCOC(=O)c3ncn4c3[C@H](C)N=C(c3ccccc3F)c3cc(C#C)ccc3-4)ncn1-2 | 158 to 160 °C | – | – | – | – | – | – | – | – | – |
| C#Cc1ccc2c(c1)C(c1ccccc1F)=N[C@@H](C)c1c(C(=O)OCCCCCOC(=O)c3ncn4c3[C@H](C)N=C(c3ccccc3F)c3cc(C#C)ccc3-4)ncn1-2 | 150 to 155 °C | – | – | – | – | – | – | – | – | – |
| C#Cc1ccc2c(c1)C(c1ccccc1F)=N[C@@H](C)c1c(C(=O)N3CCN(C(=O)c4ncn5c4[C@H](C)N=C(c4ccccc4F)c4cc(C#C)ccc4-5)CC3)ncn1-2 | 180 to 190 °C | – | – | – | – | – | – | – | – | – |
| C#Cc1ccc2c(c1)C(c1ccccc1)=NCc1c(C(=O)OCCCCCOC(=O)c3ncn4c3CN(C)C(=O)c3cc(Cl)ccc3-4)ncn1-2 | 155 to 160 °C (dec.) | – | – | – | – | – | – | – | – | – |
| C#Cc1ccc2c(c1)C(c1ccccc1F)=NCc1c(C(=O)OCCCCCOC(=O)c3ncn4c3CN(C)C(=O)c3cc(Cl)ccc3-4)ncn1-2 | 125 to 130 °C | – | – | – | – | – | – | – | – | – |
| C#Cc1ccc2c(c1)C(c1ccccc1)=NCc1c(C(=O)OCCCCCOC(=O)c3ncn4c3CN=C(c3ccccc3F)c3cc(C#C)ccc3-4)ncn1-2 | 145 to 150 °C | – | – | – | – | – | – | – | – | – |
| CN1Cc2c(C(=O)OCCCCOC(=O)c3ncn4c3CN(C)C(=O)c3cc(Cl)ccc3-4)ncn2-c2ccc(Cl)cc2C1=O | 308 to 312 °C | – | – | – | – | – | – | – | – | – |
| CN1Cc2c(C(=O)OCCCCCOC(=O)c3ncn4c3CN(C)C(=O)c3cc(Cl)ccc3-4)ncn2-c2ccc(Cl)cc2C1=O | 146 to 152 °C | – | – | – | – | – | – | – | – | – |
| CN1Cc2c(C(=O)N3CCN(C(=O)c4ncn5c4CN(C)C(=O)c4cc(Cl)ccc4-5)CC3)ncn2-c2ccc(Cl)cc2C1=O | 367 to 374 °C | – | – | – | – | – | – | – | – | – |
| C#Cc1ccc2c(c1)C(c1ccccn1)=NCc1c(C(=O)OCC)ncn1-2 [HZ-166] | – | 106 | 98.4 | 104 | 90.7 | 76.3 | 94.1 | 95.4 | 80.4% | – |
| C#Cc1ccc2c(c1)C(c1ccccc1F)=NCc1c(C(=O)OCC)ncn1-2 [JY-XHe-053] | – | 13.5 | 2.13 | 20.0 | 3.60 | 0.56 | 102 | 111 | 0.27% | % remaining ([1]; 15 min): less than 20% |
| Cc1ncc2n1-c1ccc(Cl)cc1C(c1ccccc1F)=NC2 [Midazolam] | – | – | – | – | – | – | – | – | – | Mean % Remaining vs T = 0 min, Human Liver Microsomes ([1]; 10 μM, 15 min, positive control, data from three experiments): 36.9 ± 13.5%; Mean % Remaining vs T = 0 min, Human Liver Microsomes ([1]; 10 μM, 30 min, positive control, data from three experiments): 18.7 ± 7.3%; Mean % Remaining vs T = 0 min, Human Liver Microsomes ([1]; 10 μM, 60 min, positive control, data from three experiments): 4.2 ± 2.2%; metabolism observed (in words) ([1]; active human liver microsomes, up to 60 min): consistently metabolized; Mean % Remaining vs T = 0 min, with HI (Heat Inactivated) Microsomes ([2]; 10 μM, positive control, data from three experiments): 104 ± 1.2% |
| C#Cc1ccc2c(c1)C(c1ccccc1F)=N[C@H](C)c1c(C(=O)OCC)ncn1-2 [SH-053-2′F-RCH3] | – | 86.7 | 86.7 | 97.9 | 105 | 105 | 115 | 117 | 86.9% | – |
| C#Cc1ccc2c(c1)C(c1ccccc1F)=N[C@@H](C)c1c(C(=O)OCC)ncn1-2 [SH-053-2′F-SCH3] | – | 6.18 | 0.85 | 11.7 | 1.72 | 0.20 | 110 | 114 | 3.85^d % | % remaining ([1]; 15 min): less than 12% |
| C#Cc1ccc2c(c1)C(c1ccccc1)=NCc1c(C(=O)O)ncn1-2 [XHe-II-053 Acid] | – | 108 | 106 | 95.6 | 95.0 | 95.0 | 106 | 97.4 | 111% | – |
| C#Cc1ccc2c(c1)C(c1ccccc1)=NCc1c(C(=O)OCC)ncn1-2 [XHe-II-053] | – | 41.4 | 11.1 | 47.6 | 13.9 | 1.74 | 107 | 102 | 1.46% | – |
| C#Cc1ccc2c(c1)C(c1ccccn1)=NCc1c(-c3nc(C(C)C)no3)ncn1-2 [ZJW-II-040, 5-(8-Ethynyl-6-(pyridin-2-yl)-4H-Benzo-[f]-Imidazo-[1,5-a]-[1,4]-Diazepine-3-yl)-3-Isopropyl-1,2,4-Oxadiazole] | – | 97.8 | 98.7 | 106 | 99.3 | 95.1 | 113 | 92.0 | 89.4% | – |
| C#Cc1ccc2c(c1)C(c1ccccn1)=NCc1c(C(=O)SC)ncn1-2 [ZJW-II-065, S-Methyl-8-Ethynyl-Methyl-6-(Pyridine-2-yl)-4H-Benzo-[f]-Imidazo-[1,5-a]-[1,4]-Diazepine-3-Carbothioate] | – | 98.4 | 97.0 | 111 | 106 | 95.6 | 105 | 110 | 82.5% | – |

From patent publication US9597342B2 (UWM Research Foundation, Inc., priority 2011, dated 2017)
